C=C1CCC[C@]2(C)C[C@]3(O)OC(=O)C(C)=C3C[C@@H]12
solubility (mole fraction)
Conditions	283.2 K	288.2 K	293.2 K	298.2 K	303.2 K	308.2 K	313.2 K	318.2 K	323.2 K
in diethyl ether	0.00277	0.00375	0.00562	0.00738	0.00939	–	–	–	–
in ethanol	0.00443	0.00547	0.00673	0.00809	0.00966	0.0113	0.0131	0.0151	0.0171
in ethyl acetate	0.0224	0.0228	0.0236	0.0242	0.0252	0.0261	0.0271	0.0282	0.0293
in n-hexane	2.44e-05	4.12e-05	6.39e-05	8.32e-05	0.000113	0.000153	0.000202	0.000272	0.000336
